# In PubChem BioAssay (NCI):
#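 Dose response: 5 concentrations. Exposure: 48 h. Format: 96-well plates. Endpoint: linear interpolation; highest concentration if not reached. GI50: concentration for 50% inhibition of growth. TGI: concentration producing complete growth inhibition.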
# Assays:
# Experiment in all cases: inhibition of tumour cell growth, NCI panel, 48 h
# [1] = system: SNB-19 CNS
# [2] = system: RPMI-8226 leukemia
# [3] = system: UACC-62 melanoma
# [4] = system: HCC-2998 colon
# [5] = system: HT29 colon
# [6] = system: LOX IMVI melanoma
# [7] = system: UACC-257 melanoma
# [8] = system: OVCAR-8 ovarian
# [9] = system: CCRF-CEM leukemia
# [10] = system: K-562 leukemia
# [11] = system: NCI/ADR-RES ovarian
# [12] = system: SF-295 CNS
# [13] = system: MCF7 breast
# [14] = system: UO-31 renal
# [15] = system: NCI-H460 lung
# [16] = system: SNB-75 CNS
# [17] = system: BT-549 breast
# [18] = system: HOP-92 NSCLC
# [19] = system: KM12 colon
# [20] = system: SW-620 colon
# [21] = system: MDA-MB-231 breast
# [22] = system: HOP-62 NSCLC
# [23] = system: COLO 205 colon
# [24] = system: IGROV1 ovarian
# [25] = system: MDA-MB-435
# [26] = system: M14 melanoma
# [27] = system: SK-MEL-2 melanoma
# [28] = system: ACHN renal
# [29] = system: SN12C renal
# [30] = system: 786-0 renal
# [31] = system: MALME-3M melanoma
# [32] = system: T-47D breast
# [33] = system: SK-MEL-28 melanoma
# [34] = system: RXF 393 renal
# [35] = system: SF-268 CNS
# [36] = system: HCT-116 colon
# [37] = system: HS 578T breast
# [38] = system: TK-10 renal
# [39] = system: MOLT-4 leukemia
# [40] = system: EKVX NSCLC
# [41] = system: SK-MEL-5 melanoma
# [42] = system: PC-3 prostate
# [43] = system: DU-145 prostate
# [44] = system: A498 renal
# [45] = system: NCI-H23 lung
# [46] = system: NCI-H226 lung
# [47] = system: U251 CNS
# [48] = system: HCT-15 colon
# [49] = system: SR leukemia
# [50] = system: CAKI-1 renal
# [51] = system: HL-60(TB) leukemia
# [52] = system: SF-539 CNS
# [53] = system: OVCAR-3 ovarian
# [54] = system: OVCAR-5 ovarian
# [55] = system: A549 NSCLC
# [56] = system: SK-OV-3 ovarian
# [57] = system: OVCAR-4 ovarian
structure (smiles),measurement,setting,value
C[n+]1c(/C=C\C=C\N2CCCCC2)sc2ccccc21,GI50,[1],0.538 µM
same,TGI,[1],17.2 µM
same,GI50,[2],0.0691 µM
same,TGI,[2],1.09 µM
same,GI50,[3],0.691 µM
same,TGI,[3],12.4 µM
same,GI50,[4],0.451 µM
same,TGI,[4],14.1 µM
same,GI50,[5],0.321 µM
same,TGI,[5],11.7 µM
same,GI50,[6],0.481 µM
same,TGI,[6],12.9 µM
same,GI50,[7],0.278 µM
same,TGI,[7],2.18 µM
same,GI50,[8],0.384 µM
same,TGI,[8],5.01 µM
same,GI50,[9],0.299 µM
same,TGI,[9],> 40.5 µM
same,GI50,[10],0.172 µM
same,TGI,[10],12.7 µM
same,GI50,[11],37.6 µM
same,TGI,[11],> 100 µM
same,GI50,[12],0.385 µM
same,TGI,[12],2.36 µM
same,GI50,[13],0.346 µM
same,TGI,[13],11.8 µM
same,GI50,[14],13.5 µM
same,TGI,[14],> 71.3 µM
same,GI50,[15],0.489 µM
same,TGI,[15],4.37 µM
same,GI50,[16],3.93 µM
same,TGI,[16],17 µM
same,GI50,[17],0.261 µM
same,TGI,[17],3.5 µM
same,GI50,[18],0.0758 µM
same,TGI,[18],2.16 µM
same,GI50,[19],0.27 µM
same,TGI,[19],3.02 µM
same,GI50,[20],0.513 µM
same,TGI,[20],14.9 µM
same,GI50,[21],1.01 µM
same,TGI,[21],25.6 µM
same,GI50,[22],2.26 µM
same,TGI,[22],> 38.2 µM
same,GI50,[23],0.204 µM
same,TGI,[23],0.454 µM
same,GI50,[24],0.84 µM
same,TGI,[24],33.8 µM
same,GI50,[25],0.266 µM
same,TGI,[25],1.96 µM
same,GI50,[26],2.82 µM
same,TGI,[26],> 35.2 µM
same,GI50,[27],0.634 µM
same,TGI,[27],14.3 µM
same,GI50,[28],4.07 µM
same,TGI,[28],> 53.4 µM
same,GI50,[29],0.716 µM
same,TGI,[29],21.2 µM
same,GI50,[30],2.55 µM
same,TGI,[30],> 36.6 µM
same,GI50,[31],0.311 µM
same,TGI,[31],2.18 µM
same,GI50,[32],0.2 µM
same,TGI,[32],2.72 µM
same,GI50,[33],0.552 µM
same,TGI,[33],13.4 µM
same,GI50,[34],3.48 µM
same,TGI,[34],17.6 µM
same,GI50,[35],0.457 µM
same,TGI,[35],14.8 µM
same,GI50,[36],0.308 µM
same,TGI,[36],> 32.1 µM
same,GI50,[37],1.11 µM
same,TGI,[37],22.5 µM
same,GI50,[38],2.19 µM
same,TGI,[38],16.5 µM
same,GI50,[39],0.401 µM
same,TGI,[39],9.42 µM
same,GI50,[40],0.255 µM
same,TGI,[40],10.8 µM
same,GI50,[41],0.276 µM
same,TGI,[41],1.5 µM
same,GI50,[42],0.237 µM
same,TGI,[42],2.97 µM
same,GI50,[43],0.598 µM
same,TGI,[43],17.1 µM
same,GI50,[44],0.293 µM
same,TGI,[44],9.04 µM
same,GI50,[45],0.367 µM
same,TGI,[45],18.3 µM
same,GI50,[46],1.05 µM
same,TGI,[46],22.4 µM
same,GI50,[47],0.291 µM
same,TGI,[47],15 µM
same,GI50,[48],10.9 µM
same,TGI,[48],49.2 µM
same,GI50,[49],0.105 µM
same,TGI,[49],3.08 µM
same,GI50,[50],4.8 µM
same,TGI,[50],28.9 µM
same,GI50,[51],0.166 µM
same,TGI,[51],0.737 µM
same,GI50,[52],1.03 µM
same,TGI,[52],15 µM
same,GI50,[53],0.243 µM
same,TGI,[53],5.81 µM
same,GI50,[54],5.2 µM
same,TGI,[54],> 35.2 µM
same,GI50,[55],0.413 µM
same,TGI,[55],3.07 µM
same,GI50,[56],0.794 µM
same,TGI,[56],6.79 µM
same,GI50,[57],0.479 µM
same,TGI,[57],> 42.4 µM
